This assay concerns T1, MzmL.
T1 construct: full-length ORF (304 residues, predicted 16-residue signal peptide MKKLIILLITLSLFVA included in the clone), N-terminal His6 tag kept (pET-28a), E. coli BL21(DE3), Ni-NTA, ~35 kDa
The assay can be described thus: pH-indicator (bromothymol blue) assay of lactone hydrolysis, OD630, Michaelis-Menten fit. In kind it is biochemical, Mesoflavibacter zeaxanthinifaciens. The note with it: 2.5 mM MOPS pH 7.1; 25°C in methods, 28°C in table footnote; 5 nM enzyme; read-out: Km (mM)/Mean ± SD. The source says: pH-indicator (bromothymol blue) assay of lactone hydrolysis, OD630, Michaelis-Menten fit on MzmL
For `CCCCCCCC(=O)CC(=O)N[C@H]1CCOC1=O` [3-oxo-C10-HSL], the Km was determined as 0.12 ± 0.03 mM.

For the molecule `CCCC(=O)CC(=O)N[C@H]1CCOC1=O` [3-oxo-C6-HSL], the Km was 0.08 ± 0.06 mM.

In the case of `CCCCCC(=O)N[C@H]1CCOC1=O` [C6-HSL], the Km was 0.39 ± 0.11 mM.

As for `CCCCCCCCCC(=O)N[C@H]1CCOC1=O` [C10-HSL], the Km is 0.04 ± 0.01 mM.

Consider `CCCCCC(=O)CC(=O)N[C@H]1CCOC1=O` [3-oxo-C8-HSL], for which the Km is 0.46 ± 0.21 mM.
